{"source": "patent US7323186B2", "about": "(priority 2001, dated 2008)", "key": {"[1]": {"tested_on": "TSST-1 production by S. aureus FRI-1187", "assay_type": "cell-based, Staphylococcus aureus"}, "[2]": {"tested_on": "TSST-1 production by S. aureus FRI-1169", "assay_type": "cell-based, Staphylococcus aureus"}}, "data": [{"smiles": "Oc1cc(Cl)ccc1Oc1ccc(Cl)cc1Cl", "note": "[Triclosan, triclosan]", "values": [{"measurement": "TSST-1 production compared to the control", "setting": "[1]", "result": "produced less TSST-1"}, {"measurement": "TSST-1 production compared to the control", "setting": "[2]", "result": "produced less TSST-1"}]}]}
